Data published in patent US11667636B2, “Modulators of Mas-related G-protein receptor X2 and related products and methods” (Escient Pharmaceuticals, Inc., priority 2020, dated 2023).

Target: T1, human MRGPRX2 (Homo sapiens, UniProt Q96LB1)
T1 construct: expressed in transfected cells
T1 sequence (Q96LB1 1-330): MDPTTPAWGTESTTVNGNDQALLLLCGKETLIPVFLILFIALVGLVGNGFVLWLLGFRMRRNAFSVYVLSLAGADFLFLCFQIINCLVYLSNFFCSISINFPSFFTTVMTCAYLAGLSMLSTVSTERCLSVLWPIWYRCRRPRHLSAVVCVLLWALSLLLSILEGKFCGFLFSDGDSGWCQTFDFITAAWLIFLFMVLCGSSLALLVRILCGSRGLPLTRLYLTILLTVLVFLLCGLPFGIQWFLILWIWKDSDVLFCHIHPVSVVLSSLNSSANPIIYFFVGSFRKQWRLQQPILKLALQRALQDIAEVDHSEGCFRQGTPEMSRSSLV
Experiment: MRGPRX2 Activity: IP-One HTRF antagonist assay in CHO cells stably expressing human MRGPRX2, versus Cortistatin-14
Format: cell-based
Details: versus 0.3 uM Cortistatin-14 agonist, IP-1 HTRF, read-out: MRGPR2 Antagonist Activity
Protocol: CHO cells stably transfected to express human MRGPRX2 were maintained in an incubator at 37° C. with 5% CO2 and grown in F12 (HAM) media with 10% fetal bovine serum (FBS), 1% Glutamax, 1% penicillin/streptomycin, 800 μg/mL Geneticin (G418), and 300 μg/mL Hygromycin B. Cells were plated in a 384-well assay plate at 20,000 cells per well in 12 μL of Opti-MEM and kept in an incubator overnight. On the day of the assay, compounds solubilized at 10 mM in DMSO were added as a 10-point curve (30 uM final top concentration with 1:3 serial dilutions) using a Tecan D300E digital dispenser. Agonists were diluted in assay buffer (final concentrations of 5.7 mM Tris-HCl, 43 mM NaCl, 50 mM LiCl, pH=8) and 2 μL of the agonist Cortistatin-14 (CPC Scientific, catalog CORT-002) are added to each well. Final concentrations of agonists were 0.3 μM Cortistatin-14. Final concentrations of DMSO were kept consistent across the plate. Plates were incubated in the dark for 1 hr at 37° C. and then for 1 hr at room temperature. IP-1 standards and HTRF detection reagents were added according to the IP-One-Gq Kit purchased from Cisbio (part number 62IPAPEJ) and incubated in the dark for 1 hr at room temperature. The plate was read on a Molecular Devices SpectraMax iD5 plate reader. The HTRF ratio was calculated from the raw data and graphed using GraphPad Prism to calculate an IC50 value for each compound.
The activity ranges are denoted as follows: “+++++” denotes antagonist activity <50 nM; “++++” denotes antagonist activity between 51 and 100 nM; “+++” denotes activity between 101 and 500 nM; “++” denotes activity between 501 and 1000 nM; and “+” denotes activity >1000 nM

| SMILES | IC50 [nM] |
| --- | --- |
| CCOCc1cc2c(N[C@H]3CCC[C@@H](NC(=O)c4ccc(OC)cc4)C3)cccc2s1 [1-3] | > 1000 |
| COc1ccc(C(=O)N[C@@H]2CCC[C@H](Nc3cccc4sc(C(C)=O)cc34)C2)cc1 [1-4] | > 1000 |
| CC(=O)c1cc2c(N[C@H]3CC[C@@H](NC(=O)c4ccc(F)cc4)CC3)cccc2s1 [1-5] | 101 to 500 |
| O=C(N[C@H]1CC[C@@H](Nc2cccc3sc(C(F)F)cc23)CC1)c1ccc(F)cc1 [1-13] | 51 to 100 |
| COc1ccc(C(=O)N[C@@H]2CCC[C@H](Nc3cccc4sc(OC)cc34)C2)cc1 [1-14] | > 1000 |
| COc1ccc(C(=O)N[C@@H]2CCC[C@H](Nc3cccc4sc(C#N)cc34)C2)cc1 [1-16] | 101 to 500 |
| COc1ccc(C(=O)N[C@H]2CC[C@@H](Nc3cccc4sc(C(F)(F)F)nc34)CC2)cc1 [1-17] | > 1000 |
| O=C(N[C@H]1CC[C@@H](Nc2cccc3nc(C(F)(F)F)sc23)CC1)c1ccc(F)cc1 [1-19] | 51 to 100 |
| N#Cc1cc2c(N[C@H]3CC[C@@H](NC(=O)c4ccc(F)cc4)CC3)cccc2s1 [1-20] | 51 to 100 |
| COc1ccc(C(=O)N[C@H]2CC[C@@H](Nc3cccc4nn(C(F)(F)F)cc34)CC2)cc1 [1-21] | 51 to 100 |
| COc1ccc(C(=O)N[C@H]2CC[C@@H](Nc3cccc4nc(C(F)(F)F)sc34)CC2)cc1 [1-22] | 51 to 100 |
| COc1ccc(C(=O)N[C@H]2CC[C@@H](Nc3cc(C)cc4nc(C(F)(F)F)cn34)CC2)cc1 [1-23] | 101 to 500 |
| COc1ccc(C(=O)N[C@@H]2CCC[C@H](Nc3cc(Cl)cc4nc(C(F)(F)F)cn34)C2)cc1 [1-30] | 51 to 100 |
| COc1ccc(C(=O)N[C@@H]2CCC[C@H](Nc3cc(F)cc4nc(C(F)(F)F)cn34)C2)cc1 [1-31] | 51 to 100 |
| O=C(N[C@H]1CC[C@@H](Nc2cccc3sc(C(F)(F)F)cc23)CC1)c1cc2ccccn2n1 [2-1] | 51 to 100 |
| CC(=O)Nc1cccc(C(=O)N[C@H]2CC[C@@H](Nc3cccc4sc(C(F)(F)F)cc34)CC2)c1 [2-2] | > 1000 |
| CCn1nccc1C(=O)N[C@H]1CC[C@@H](Nc2cccc3sc(C(F)(F)F)cc23)CC1 [2-3] | 101 to 500 |
| CC(C#N)c1cccc(C(=O)N[C@H]2CC[C@@H](Nc3cccc4sc(C(F)(F)F)cc34)CC2)c1 (stereo partly drawn) [2-5] | 101 to 500 |
| O=C(N[C@H]1CC[C@@H](Nc2cccc3nc(C(F)(F)F)cn23)CC1)c1ccc(N2CCOCC2)cc1 [2-8] | < 50 |

| SMILES | IC50 [nM] |
| --- | --- |
| O=C(N[C@H]1CC[C@@H](Nc2cccc3nc(C(F)(F)F)cn23)CC1)c1n[nH]c2ccccc12 [2-9] | 101 to 500 |
| O=C(N[C@H]1CC[C@@H](Nc2cccc3nc(C(F)(F)F)cn23)CC1)c1cnc[nH]1 [2-11] | 101 to 500 |
| CN(CC(F)F)c1cccc(C(=O)N[C@H]2CC[C@@H](Nc3cccc4nc(C(F)(F)F)cn34)CC2)c1 [2-14] | 51 to 100 |
| CCOc1cc(C(=O)N[C@H]2CC[C@@H](Nc3cccc4nc(C(F)(F)F)cn34)CC2)ccn1 [2-15] | 101 to 500 |
| O=C(N[C@H]1CC[C@@H](Nc2cccc3nc(C(F)(F)F)cn23)CC1)c1ccc(NCC(F)(F)F)cc1 [2-23] | < 50 |
| COc1ccc(C(=O)N[C@H]2CC[C@@H](Nc3cccc4nc(C(F)F)cn34)CC2)c(F)c1 [2-27] | 101 to 500 |
| O=C(N[C@H]1CC[C@@H](Nc2cccc3nc(C(F)(F)F)cn23)CC1)c1cc2cc(F)cnc2[nH]1 [2-120] | < 50 |
| O=C(N[C@H]1CC[C@@H](Nc2cccc3nc(C(F)(F)F)cn23)CC1)c1cnc2nccn2c1 [2-125] | 101 to 500 |
| O=C(N[C@H]1CC[C@@H](Nc2cccc3nc(C(F)(F)F)cn23)CC1)c1ccnc2cn[nH]c12 [2-126] | < 50 |
| Cc1ncc(C(=O)N[C@H]2CC[C@@H](Nc3cccc4nc(C(F)(F)F)cn34)CC2)n1C [2-134] | 101 to 500 |
| O=C(N[C@H]1CC[C@@H](Nc2cccc3nc(C(F)(F)F)cn23)CC1)c1ccn(CC(F)F)n1 [2-135] | < 50 |
| Cc1n[nH]cc1C(=O)N[C@H]1CC[C@@H](Nc2cccc3nc(C(F)(F)F)cn23)CC1 [2-138] | < 50 |
| O=C(N[C@H]1CC[C@@H](Nc2cccc3nc(C(F)(F)F)cn23)CC1)c1c[nH]nc1C1CC1 [2-141] | < 50 |
| O=C(N[C@H]1CC[C@@H](Nc2cccc3nc(C(F)F)cn23)CC1)c1cncs1 [2-147] | 101 to 500 |
| COc1ccc(C(=O)N[C@H]2CC[C@@H](Nc3cccc4nc(C(F)F)cn34)CC2)c(Cl)c1 [2-148] | 51 to 100 |
| O=C(N[C@H]1CC[C@@H](Nc2cccc3nc(C(F)F)cn23)CC1)c1ccc(F)cc1Cl [2-149] | 101 to 500 |
| O=C(N[C@H]1CC[C@@H](Nc2cccc3nc(C(F)F)cn23)CC1)c1ccnc(NCC(F)F)c1 [2-150] | < 50 |
| O=C(N[C@H]1CC[C@@H](Nc2cccc3nc(C(F)F)cn23)CC1)c1cccc2[nH]c(C(F)F)nc12 [2-151] | 101 to 500 |
| O=C(N[C@H]1CC[C@@H](Nc2cccc3nc(C(F)(F)F)cn23)CC1)c1ccc(F)cc1 [2-157] | < 50 |

| SMILES | IC50 [nM] |
| --- | --- |
| CN(C)c1ccc(C(=O)N[C@H]2CC[C@@H](Nc3cccc4nc(C(F)(F)F)cn34)CC2)cc1 [2-158] | < 50 |
| CN(C)c1ccc(C(=O)N[C@H]2CC[C@@H](Nc3cccc4nc(C(F)(F)F)cn34)CC2)c(F)c1 [2-159] | 51 to 100 |
| O=C(N[C@H]1CC[C@@H](Nc2cccc3nc(C(F)(F)F)cn23)CC1)c1ccncc1 [2-162] | 101 to 500 |
| O=C(N[C@H]1CC[C@@H](Nc2cccc3nc(C(F)(F)F)cn23)CC1)c1ccn2cncc2c1 [2-163] | < 50 |
| O=C(N[C@H]1CC[C@@H](Nc2cccc3nc(C(F)(F)F)cn23)CC1)c1ccc2nccn2c1 [2-165] | < 50 |
| COc1cccc2cc(C(=O)N[C@H]3CC[C@@H](Nc4cccc5nc(C(F)(F)F)cn45)CC3)oc12 [2-166] | 51 to 100 |
| O=C(N[C@H]1CC[C@@H](Nc2cccc3nc(C(F)(F)F)cn23)CC1)c1ccnc2[nH]ccc12 [2-168] | < 50 |
| Cc1nc2cccc(C(=O)N[C@H]3CC[C@@H](Nc4cccc5nc(C(F)(F)F)cn45)CC3)c2s1 [2-169] | < 50 |
| O=C(N[C@H]1CC[C@@H](Nc2cccc3nc(C(F)(F)F)cn23)CC1)c1c[nH]nc1Cl [2-176] | < 50 |
| O=C(N[C@H]1CC[C@@H](Nc2cccc3nc(C(F)(F)F)cn23)CC1)c1c[nH]nc1C(F)(F)F [2-177] | < 50 |
| O=C(N[C@H]1CC[C@@H](Nc2cccc3nc(C(F)(F)F)cn23)CC1)c1ccc(C(F)F)cc1 [2-179] | < 50 |
| O=C(N[C@H]1CC[C@@H](Nc2cccc3nc(C(F)(F)F)cn23)CC1)c1ccc(NCC(F)F)cc1 [2-180] | < 50 |
| CN(CC(F)F)c1ccc(C(=O)N[C@H]2CC[C@@H](Nc3cccc4nc(C(F)(F)F)cn34)CC2)cc1 [2-181] | < 50 |
| Cc1n[nH]c2c(C(=O)N[C@H]3CC[C@@H](Nc4cccc5nc(C(F)(F)F)cn45)CC3)cccc12 [2-183] | < 50 |
| O=C(N[C@H]1CC[C@@H](Nc2cccc3nc(C(F)(F)F)cn23)CC1)c1ccccc1NCC(F)F [2-188] | < 50 |
| CCc1cc(C(=O)N[C@H]2CC[C@@H](Nc3cccc4nc(C(F)(F)F)cn34)CC2)nn1CC [2-190] | 101 to 500 |
| Cn1cc(C(=O)N[C@H]2CC[C@@H](Nc3cccc4nc(C(F)(F)F)cn34)CC2)c(C2CC2)n1 [2-191] | 51 to 100 |
| O=C(N[C@H]1CC[C@@H](Nc2cccc3nc(C(F)F)cn23)CC1)c1cccc2cn[nH]c12 [2-193] | < 50 |
| O=C(N[C@H]1CC[C@@H](Nc2cccc3nc(C(F)F)cn23)CC1)c1c[nH]nc1NCC(F)F [2-194] | < 50 |
